In patent US11406699B2 (priority 2019, dated 2022):
Where “and” joins values, the source holds several entries; their conditions need not be identical. Equal entries are not always repeated.

How the values were obtained:
CHIKV = type: cell-based, chikungunya virus
VEEV ZPC738 TaV-nLuc = test: microbe, parasite or virus in culture; type: cell-based; conditions: Venezuelan equine encephalitis virus, Vero, 24 h
in vitro = conditions: African green monkey
SINV = type: cell-based, Sindbis virus
VEEV TC-83 [1] = test: microbe, parasite or virus in culture; type: cell-based; conditions: Venezuelan equine encephalitis virus, Vero, read-out: effective concentration 50% (EC50)
EEEV FL93-939 TaV-nLuc = test: microbe, parasite or virus in culture; type: cell-based; conditions: Eastern equine encephalitis virus, Vero, 24 h
VEEV TC-83 [2] = type: cell-based, Venezuelan equine encephalitis virus

## CC(=O)c1c(O)c(C)c(O)c(Cc2c(O)c3c(c(C(=O)/C=C/c4ccccc4)c2O)OC(C)(C)C=C3)c1O [Rottlerin]
CHIKV
  decrease in CHIKV replication: 3 log
VEEV ZPC738 TaV-nLuc
  EC50: 1.1 µM
In vitro
  CC50: 63 µM
SINV
  decrease in SINV replication: 5 log
VEEV TC-83 [1]
  EC50: < 1 µM
EEEV FL93-939 TaV-nLuc
  EC50: 1.7 µM
VEEV TC-83 [2]
  decrease in VEEV TC-83 replication: 2 log and 3 log
